The assay concerns maximal electroshock seizure (MEST) threshold in rodents. Nature of the assay: MEST test (maximal electroshock seizure threshold). As to conditions: 2 mg/kg p.o. at 2 h post-dose. The class given is in vivo. How it is done:
2. MEST Test The maximal electroshock seizure (MEST) threshold test in rodents is particularly sensitive for detecting potential anticonvulsant properties^1. In this model, anticonvulsant agents elevate the threshold to electrically-induced seizures whilst proconvulsants lower the seizure threshold. Method for Mouse Model Mice (naive male, Charles River, U.K. CD-1 strain, 25-30 g) are randomly assigned to groups of 10-20 and dosed orally or intraperitoneally at a dose volume of 10 ml/kg with various doses of compound (0.3-300 mg/kg) or vehicle. Mice are then subjected at 30 or 60 min post dose to a single electroshock (0.1 sec, 50 Hz, sine wave form) administered via corneal electrodes. The mean current and standard error required to induce a tonic seizure in 50% (CC50) of the mice in a particular treatment group is determined by the ‘up and down’ method of Dixon and Mood (1948)^2. Statistical comparisons between vehicle- and drug-treated groups are made using the method of Litchfield and Wilcoxon (1949)^3. In control animals the CC50 is usually 14-18 mA. […] If a tonic convulsion does occur, then the current is decreased, and so on until all the animals in the group have been tested. Studies are carried out using a Hugo Sachs Electronik Constant Current Shock Generator with totally variable control of shock level from 0 to 300 mA and steps of 2 mA are usually used. Method for Rat Model The threshold for maximal (tonic hindlimb extension) electroshock seizures in male rats (Sprague Dawley, 80-150 g, 6 weeks old) was determined by a Hugo Sachs Electronik stimulator which delivered a constant current (0.3 sec duration; from 1-300 mA in steps of 5-20 mA). The procedure is similar to that outlined above for mouse and full details are as published by Upton et al,.^4 The percentage increase or decrease in CC50 for each group compared to the control is calculated. Drugs are suspended in 1% methyl cellulose.
Turning to `COc1ccc(C(=O)Nc2ccc3c(c2)CN(C)C(C)(C)C3)cc1C(F)(F)F` [Example E69, N-(2,3,3-Trimethyl-1,2,3,4-tetrahydroisoquinolin-7-yl)4-methoxy-3-trifluoromethylbenzamide], the “% increases in seizure threshold” value was 340%.
As for `CCc1c(NC(=O)c2ccc(OC(C)C)c(C(C)=O)c2)ccc2c1CN(C)CC2(C)C` [Example E48, N-(8-Ethyl-2,4,4-trimethyl-1,2,3,4-tetrahydroisoquinolin-7-yl)-3-acetyl-4-iso-propyloxybenzamide], the figure is 240%; as for `COc1ccc(C(=O)Nc2ccc3c(c2)CN(C)CC3(C)C)cc1I` [Example E17, N-(2,4,4-Trimethyl-1,2,3,4-tetrahydroisoquinolin-7-yl)-3-iodo-4-methoxybenzamide], 314%.
As for `COc1ccc(C(=O)Nc2ccc3c(c2)CN(C)CC3(C)C)cc1Br` [Example E15, N-(2,4,4-Trimethyl-1,2,3,4-tetrahydroisoquinolin-7-yl)-3-bromo-4-methoxybenzamide], the figure is 263%; as for `COc1cc(OC(C)C)c(Cl)cc1C(=O)Nc1cccc2c1C(C)(C)CN(C)C2` [Example E29, N-(2,4,4-Trimethyl-1,2,3,4-tetrahydroisoquinolin-5-yl)-5-chloro-2-methoxy-4-iso-propyloxybenzamide], 310%.
As for `COc1cc(C(C)C)c(C(F)(F)F)cc1C(=O)Nc1cccc2c1C(C)(C)CN(C)C2` [Example E34, N-(2,4,4-Trimethyl-1,2,3,4-tetrahydroisoquinolin-5-yl)-2-methoxy-4-iso-propyl-5-trifluoromethylbenzamide], the figure is 280%.

These data come from patent publication US6492378B1, “Substituted isoquinoline derivatives and their use as anticonvulsivants” (SmithKline Beecham p.l.c., priority 1998, dated 2002).
